Where a name gives a salt, the structure may show the parent alone.
Assays:
Hepatitis C virus = assay: Antiviral activity against HCV genotype 1a; assay type: functional, organism-based, Hepacivirus hominis; conditions: subtype 1a
[1] = Half life of compound in human plasma in presence of CYP3A inhibitor ritonavir; assay type: ADME, organism-based; conditions: with ritonavir (CYP3A inhibitor)
[2] = target: T1, Sodium/glucose cotransporter 2 (Homo sapiens, UniProt P31639); assay: Competitive inhibition of human SGLT2 expressed in CHO-K1 cells assessed as inhibition of [14C]-alpha-methylglucoside uptake; assay type: cell-based
T1 sequence (P31639 whole entry): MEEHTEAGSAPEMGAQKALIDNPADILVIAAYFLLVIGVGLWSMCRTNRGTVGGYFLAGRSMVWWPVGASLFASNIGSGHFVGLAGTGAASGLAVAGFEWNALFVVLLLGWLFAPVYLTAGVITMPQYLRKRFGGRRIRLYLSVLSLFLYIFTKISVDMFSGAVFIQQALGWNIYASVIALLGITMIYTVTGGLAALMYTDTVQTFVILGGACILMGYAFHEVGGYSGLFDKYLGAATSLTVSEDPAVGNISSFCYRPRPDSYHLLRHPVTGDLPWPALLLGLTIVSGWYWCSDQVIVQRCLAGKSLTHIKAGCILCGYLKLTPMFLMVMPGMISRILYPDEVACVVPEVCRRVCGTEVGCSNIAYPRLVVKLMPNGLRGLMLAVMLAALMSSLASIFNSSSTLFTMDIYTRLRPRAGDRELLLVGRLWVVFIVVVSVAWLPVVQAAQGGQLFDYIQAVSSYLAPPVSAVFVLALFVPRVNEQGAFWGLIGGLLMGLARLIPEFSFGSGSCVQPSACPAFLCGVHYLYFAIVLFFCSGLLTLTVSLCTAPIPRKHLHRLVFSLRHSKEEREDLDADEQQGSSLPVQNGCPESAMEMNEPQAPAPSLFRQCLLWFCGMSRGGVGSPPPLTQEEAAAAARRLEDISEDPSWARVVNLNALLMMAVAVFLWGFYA

[3] = target: Vascular endothelial growth factor receptor 2 (Homo sapiens, UniProt P35968); assay: Inhibition of VEGF2 receptor (unknown origin) by ELISA
Vascular endothelial growth factor receptor 2, sequence (P35968 whole entry): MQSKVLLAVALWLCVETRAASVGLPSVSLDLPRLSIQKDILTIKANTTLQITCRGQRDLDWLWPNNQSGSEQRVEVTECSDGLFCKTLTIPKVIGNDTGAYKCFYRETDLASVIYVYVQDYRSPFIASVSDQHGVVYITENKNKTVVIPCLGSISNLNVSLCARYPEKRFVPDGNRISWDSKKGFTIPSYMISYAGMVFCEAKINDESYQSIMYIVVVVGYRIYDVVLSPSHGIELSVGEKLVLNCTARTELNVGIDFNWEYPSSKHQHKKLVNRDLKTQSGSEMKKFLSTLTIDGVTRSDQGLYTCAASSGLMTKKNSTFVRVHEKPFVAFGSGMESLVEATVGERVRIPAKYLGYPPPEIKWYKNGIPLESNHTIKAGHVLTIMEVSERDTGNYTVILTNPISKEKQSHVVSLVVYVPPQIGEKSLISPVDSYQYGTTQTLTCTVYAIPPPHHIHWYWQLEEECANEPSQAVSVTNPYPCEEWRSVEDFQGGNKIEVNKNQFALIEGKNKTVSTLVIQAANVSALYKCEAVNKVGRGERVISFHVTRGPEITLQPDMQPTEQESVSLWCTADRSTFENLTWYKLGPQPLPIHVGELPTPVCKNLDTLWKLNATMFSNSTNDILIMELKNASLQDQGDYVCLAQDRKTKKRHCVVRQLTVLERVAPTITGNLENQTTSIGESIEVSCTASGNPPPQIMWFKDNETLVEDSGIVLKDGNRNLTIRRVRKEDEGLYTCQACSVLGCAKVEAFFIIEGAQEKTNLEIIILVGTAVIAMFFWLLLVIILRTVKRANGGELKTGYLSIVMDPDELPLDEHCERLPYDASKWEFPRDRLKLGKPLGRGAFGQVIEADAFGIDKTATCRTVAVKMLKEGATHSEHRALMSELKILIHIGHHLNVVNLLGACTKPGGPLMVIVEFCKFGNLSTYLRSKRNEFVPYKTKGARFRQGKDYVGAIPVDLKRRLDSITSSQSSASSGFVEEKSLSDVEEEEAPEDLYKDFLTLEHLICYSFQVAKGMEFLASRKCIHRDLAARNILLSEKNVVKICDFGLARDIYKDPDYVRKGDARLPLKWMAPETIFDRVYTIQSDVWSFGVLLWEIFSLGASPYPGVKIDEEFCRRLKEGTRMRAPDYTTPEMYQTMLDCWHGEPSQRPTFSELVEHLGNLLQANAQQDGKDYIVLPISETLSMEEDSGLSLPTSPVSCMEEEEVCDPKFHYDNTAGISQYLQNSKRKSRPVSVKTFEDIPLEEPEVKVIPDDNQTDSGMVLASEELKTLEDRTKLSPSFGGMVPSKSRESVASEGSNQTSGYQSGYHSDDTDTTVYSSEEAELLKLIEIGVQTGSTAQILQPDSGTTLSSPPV

Cc1cnc(C(=O)N[C@H]2CCCCC/C=C\[C@@H]3C[C@@]3(C(=O)NS(=O)(=O)C3CC3)NC(=O)[C@@H]3C[C@@H](Oc4nc5ccccc5c5ccccc45)CN3C2=O)cn1.O.O
EC50 (Hepatitis C virus): 1 nM
half-life [1]: 5.5 h

CCOc1ccc(Cc2cc([C@@H]3S[C@H](CO)[C@@H](O)[C@H](O)[C@H]3O)c(OC)cc2C)cc1
Ki [2]: 1.1 nM

N#CC1(c2ccc(NC(=O)c3cccnc3NCc3ccncc3)cc2)CCCC1 [RIVOCERANIB MESYLATE]
IC50 [3]: 1 nM

— ChEMBL document CHEMBL3779889, “Synthetic approaches to the 2014 new drugs” (Bioorg Med Chem, 2016)
